The record followed here is patent US20250230151A1, “COMPOUNDS FOR CANCERS DRIVEN BY BRAF MUTATION” (THE BOARD OF TRUSTEES OF THE UNIVERSITY OF ILLINOIS, priority 2021, published 2025).

One series relates to A375 cells. Briefly: 72-hour cell viability assay (Alamar Blue), A375. It is filed as cell-based, human. The following applies: for IC50: 72-hour incubation, Alamar Blue, V600E BRAF; for Emax: A-375, A375, 72-hour incubation. The procedure: Cell Culture and reagents. All cell lines were grown in a 37° C., 5% CO2, humidified environment, in media containing 1% penicillin/streptomycin. Cell culture conditions are as follows: MDCK cells transfected with MDR1 (or ABCB1) were obtained from the Netherlands Cancer Institute (Amsterdam, The Netherlands) and maintained in DMEM with 10% fetal bovine serum (FBS, Gemini). Traditional cell lines A375, CHL-1, B16F10, and U118MG were grown in DMEM with 10% FBS, SK-MEL-28, U87 and T98G in EMEM with 10% FBS, AM-38 in EMEM with 20% HI-FBS (Gibco), HT29 in McCoy's 5A with 10% FBS, HCT116 in RPMI with 10% FBS. Compounds were dissolved in DMSO (1% final concentration, Sigma-Aldrich) for cell culture studies.
Cell viability assays. Cells were harvested, seeded in a 96-well plate and allowed to adhere overnight. Compound was added to each well in DMSO (1% final concentration). Cells were incubated for 72 hours before viability was assessed by the Alamar Blue Assay. Raptinal ([…]) was used as a dead control.
A general note: Resazurin is reduced to fluorescent resorufin, in cell work by metabolically active cells.

The next series deals with T1, P-gp (Homo sapiens, UniProt P08183).
T1 construct: host or cells: MDCK (MDR1-MDCK)
Briefly: MDR1-MDCK P-gp transwell bidirectional transport assay. Format: in vitro ADME. The following applies: 10 μM, 90 min; for Papp A→B at 90 min, 10 µM / Papp B→A at 90 min, 10 µM / efflux ratio at 90 min, 10 µM: dog, MDCK-MDR1, MDR1-MDCK; for efflux ratio at 90 min, 10 µM: read-out: ER (efflux ratio) (converted). As to the method:
A novel compound collection composed of complex and diverse compounds derived from natural products, termed “Complexity-to-Diversity Collection” was employed. […] The CtD compounds were evaluated by the efflux pump and their permeability using the P-gp transwell assay using adapted and optimized known protocols. Compound transport across epithelial cells overexpressing P-gp from basolateral-to-apical and apical-to-basolateral directions were quantified to calculate permeability and efflux ratio.
P-gp transwell bidirectional transport assays. Unless noted otherwise, the transport assay was performed in triplicate in batches of 16 or 24 test compounds, with each batch containing quinidine as a substrate control and propranolol as a non-substrate control. MDR1-MDCK cells were plated at a density of 300,000 cells/cm^2 onto 96-well Falcon™ Multiwell Insert System with 1 µm pore polycarbonate filters with angled-bottom receiver plates (Coming) and were fed with the cell growth medium on day 2.
The donor solution was prepared by adding 1 mM DMSO stocks of compounds to make the final concentration […], and the receiver solution was prepared with equivalent volume of DMSO to make 1% DMSO in final assay chamber volumes.
After 80-96 hours since seeding, the growth media on both sides was aspirated. To the transwell plate (apical side), 50 μL of receiver and donor solutions prepared on a 96-well plate were added, and it was placed on top of a separate angled-bottom 96-well plate (basolateral side) containing 260 μL of receiver and donor solutions.
Following 90 minutes of incubation at 37° C. with shaking at 90 rpm, 20 μL aliquot of samples were taken from both the donor and receiver chambers, and the apical and basolateral sides. Aliquots of 4 test compounds were pooled for each category: apical-donor, apical-receiver, basolateral-donor, basolateral-receiver. To measure CO and mass balance, initial donor samples from both apical and basolateral side were set aside from the assay plate. Acetonitrile twice the volume of pooled samples was added and mixed thoroughly, and precipitated proteins were removed by centrifugation at 20,000 r.c.f for 10 minutes.
To ascertain the MDCK monolayer integrity, the solution on apical side contained 100 µM Lucifer Yellow (Millipore-Sigma). After 90 minutes of compound transport, Lucifer Yellow concentration in the basal well was measured using SpectraMax M3 (Molecular Devices) set to an excitation wavelength of 430 nm and an emission wavelength of 540 nm.
Samples were analyzed with the 5500 QTRAP LC/MS/MS system (AB Sciex) with a 1200 series HPLC system (Agilent Technologies) including a degasser, an autosampler, and a binary pump. The liquid chromatography separation was performed on an Agilent SB-Aq column (4.6×50 mm, 5 μm) (Agilent Technologies) with mobile phase A (0.1% formic acid in water) and mobile phase B (0.1% formic acid in acetonitrile). The flow rate was 0.3 ml min^−1. The linear gradient was optimized for each compound. The autosampler was set at 5° C. The injection volume was 15 μL. Mass spectra were acquired with both positive electrospray ionization at the ion spray voltage of 5,500 V and negative electrospray ionization at the ion spray voltage of −4,500 V. The source temperature was 450° C. The curtain gas, ion source gas 1, and ion source gas 2 were 33, 50 and 65, respectively. Multiple reaction monitoring was used to quantify metabolites.
Efflux data calculations.

T1 sequence (P08183 whole entry): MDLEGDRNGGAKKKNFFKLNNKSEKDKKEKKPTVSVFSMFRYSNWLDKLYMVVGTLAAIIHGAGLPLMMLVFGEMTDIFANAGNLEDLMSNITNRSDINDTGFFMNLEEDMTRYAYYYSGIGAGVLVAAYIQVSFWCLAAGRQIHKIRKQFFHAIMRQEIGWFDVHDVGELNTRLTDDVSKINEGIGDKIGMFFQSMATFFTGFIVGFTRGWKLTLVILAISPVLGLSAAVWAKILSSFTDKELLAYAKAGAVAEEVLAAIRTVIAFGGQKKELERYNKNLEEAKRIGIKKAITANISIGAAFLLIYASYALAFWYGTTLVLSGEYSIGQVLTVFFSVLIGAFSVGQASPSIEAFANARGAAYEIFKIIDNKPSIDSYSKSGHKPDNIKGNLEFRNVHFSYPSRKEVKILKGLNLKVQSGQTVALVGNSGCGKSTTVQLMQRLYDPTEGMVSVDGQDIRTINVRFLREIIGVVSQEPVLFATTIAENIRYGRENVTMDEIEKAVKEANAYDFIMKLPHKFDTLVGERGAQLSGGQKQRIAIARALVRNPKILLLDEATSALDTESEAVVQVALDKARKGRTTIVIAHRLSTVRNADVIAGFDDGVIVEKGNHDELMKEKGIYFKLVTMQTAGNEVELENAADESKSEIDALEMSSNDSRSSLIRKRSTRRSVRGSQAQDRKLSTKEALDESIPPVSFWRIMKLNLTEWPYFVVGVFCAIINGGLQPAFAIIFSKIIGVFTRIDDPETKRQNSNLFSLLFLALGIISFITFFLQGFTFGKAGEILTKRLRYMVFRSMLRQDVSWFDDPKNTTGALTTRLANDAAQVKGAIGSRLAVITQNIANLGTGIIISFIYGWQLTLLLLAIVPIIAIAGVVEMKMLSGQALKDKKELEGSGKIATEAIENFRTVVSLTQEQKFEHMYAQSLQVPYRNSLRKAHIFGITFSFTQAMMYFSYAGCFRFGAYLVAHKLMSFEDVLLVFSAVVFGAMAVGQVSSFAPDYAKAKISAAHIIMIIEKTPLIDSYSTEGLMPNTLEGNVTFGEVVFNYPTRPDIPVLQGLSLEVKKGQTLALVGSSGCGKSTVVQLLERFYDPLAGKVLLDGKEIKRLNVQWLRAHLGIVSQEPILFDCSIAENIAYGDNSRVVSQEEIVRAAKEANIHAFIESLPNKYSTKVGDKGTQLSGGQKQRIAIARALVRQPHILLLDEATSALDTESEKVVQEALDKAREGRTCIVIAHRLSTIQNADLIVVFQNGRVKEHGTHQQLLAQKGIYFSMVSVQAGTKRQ

For `CC(C)(C)c1nc(-c2cccc(NS(=O)(=O)c3c(F)cccc3F)c2F)c(-c2ccnc(Nc3ccc(C(=O)O)cc3)n2)s1` [6-77, 4-((4-(2-(tert-butyl)-4-(3-((2,6-difluorophenyl)sulfonamido)-2-fluorophenyl)thiazol-5-yl)pyrimidin-2-yl)amino)benzoic acid], the IC50 (usually the concentration at which inhibition is half-maximal) in the series on A375 cells (Homo sapiens, A-375, 72 h) was above 1000 nM. Also, at P-gp, the Papp A→B – broadly, how fast a substance crosses the layer from the apical side – at 90 min, 10 µM worked out at 1.58 ± 0.335 ×10⁻⁶ cm/s; the Papp B→A – broadly, the apparent permeability from the basolateral to the apical side of a cell layer – at 90 min, 10 µM was determined as 1.45 ± 0.077 ×10⁻⁶ cm/s; the efflux ratio at 90 min, 10 µM was 0.984 ± 0.164.
Compound `CC(C)(C)c1nc(-c2cccc(NS(=O)(=O)c3c(F)cccc3F)c2F)c(-c2ccnc(NCCCCC(=O)O)n2)s1` [6-83, 5-((4-(2-(tert-butyl)-4-(3-((2,6-difluorophenyl)sulfonamido)-2-fluorophenyl)thiazol-5-yl)pyrimidin-2-yl)amino)pentanoic acid] came in with an IC50 with A375 cells of 115 ± 9.85 nM. In the series on A375 cells (Homo sapiens, A-375, 72 h), this compound gave an IC50 of 115 nM. In the series with A375 cells (Homo sapiens), this compound registered an Emax of 65%. Also, at P-gp (MDR1-MDCK), the “Papp A-B” value was found to be 1.089 ± 0.097 ×10⁻⁶ cm/s and the “Papp B-A” value was 2.165 ± 0.371 ×10⁻⁶ cm/s. On P-gp, the Papp A→B at 90 min, 10 µM turned out to be 1.09 ± 0.097 ×10⁻⁶ cm/s; the Papp B→A at 90 min, 10 µM was 2.17 ± 0.371 ×10⁻⁶ cm/s; the efflux ratio at 90 min, 10 µM was 1.96 ± 0.22.
As for `CC(C)(C)c1nc(-c2cccc(NS(=O)(=O)c3c(F)cccc3F)c2F)c(-c2ccnc(N[C@H]3CC[C@@H](C(=O)O)CC3)n2)s1` [6-85, (1s,4s)-4-((4-(2-(tert-butyl)-4-(3-((2,6-difluorophenyl)sulfonamido)-2-fluorophenyl)thiazol-5-yl)pyrimidin-2-yl)amino)cyclohexane-1-carboxylic acid], in the series on A375 cells (Homo sapiens, A-375, 72 h), 474 ± 11.8 nM corresponded to half-maximal inhibition (IC50). In addition, at P-gp, the apparent permeability from apical to basolateral (Papp A→B) at 90 min, 10 µM was 0.709 ± 0.045 ×10⁻⁶ cm/s; the Papp B→A at 90 min, 10 µM is 2.26 ± 0.32 ×10⁻⁶ cm/s; the efflux ratio at 90 min, 10 µM is 3.22 ± 0.54.
Compound `CC(C)(C)c1nc(-c2cccc(NS(=O)(=O)c3c(F)cccc3F)c2F)c(-c2ccnc(NCCCC(=O)O)n2)s1` [6-86, 4-((4-(2-(tert-butyl)-4-(3-((2,6-difluorophenyl)sulfonamido)-2-fluorophenyl)thiazol-5-yl)pyrimidin-2-yl)amino)butanoic acid] displayed an IC50 in the series with A375 cells of 628 ± 105 nM. The compound also returned an IC50 in the series on A375 cells (Homo sapiens, A-375, 72 h) of 628 ± 105 nM. For the same compound, the Emax in the series with A375 cells (Homo sapiens) came out at 65%. Moreover, the “ER (efflux ratio)” value on P-gp (MDR1-MDCK) stood at 0.607 ± 0.16. In addition, at P-gp, the Papp A→B at 90 min, 10 µM is 0.844 ± 0.214 ×10⁻⁶ cm/s; the Papp B→A at 90 min, 10 µM is 0.445 ± 0.04 ×10⁻⁶ cm/s; the efflux ratio at 90 min, 10 µM is 0.61 ± 0.16.
For the compound `CC(C)(C)c1nc(-c2cccc(NS(=O)(=O)c3c(F)cccc3F)c2F)c(-c2ccnc(N[C@H]3CC[C@H](C(=O)O)CC3)n2)s1` [6-89, (1r,4r)-4-((4-(2-(tert-butyl)-4-(3-((2,6-difluorophenyl)sulfonamido)-2-fluorophenyl)thiazol-5-yl)pyrimidin-2-yl)amino)cyclohexane-1-carboxylic acid], in the series with A375 cells, the IC50 is 166 ± 4.09 nM. Moreover, in the series on A375 cells (Homo sapiens, A-375, 72 h), the IC50 worked out at 166 ± 4.09 nM. For the same compound, on P-gp (MDR1-MDCK), the “Papp A-B” value stood at 2.237 ± 0.126 ×10⁻⁶ cm/s and the “Papp B-A” value turned out to be 1.251 ± 0.436 ×10⁻⁶ cm/s. Moreover, at P-gp, the apparent permeability from apical to basolateral (Papp A→B) at 90 min, 10 µM was 2.24 ± 0.126 ×10⁻⁶ cm/s; the Papp B→A at 90 min, 10 µM came to 1.25 ± 0.436 ×10⁻⁶ cm/s; the efflux ratio at 90 min, 10 µM was 0.56 ± 0.18.
Regarding `CC(C)(C)c1nc(-c2cccc(NS(=O)(=O)c3c(F)cccc3F)c2F)c(-c2ccnc(N[C@@H]3CC[C@H](C(=O)O)C3)n2)s1` [6-91, (1S,3R)-3-((4-(2-(tert-butyl)-4-(3-((2,6-difluorophenyl)sulfonamido)-2-fluorophenyl)thiazol-5-yl)pyrimidin-2-yl)amino)cyclopentane-1-carboxylic acid], the IC50 in the series with A375 cells (Homo sapiens, A-375, 72 h) is above 1000 nM. Further, at P-gp, the Papp A→B at 90 min, 10 µM turned out to be 0.493 ± 0.148 ×10⁻⁶ cm/s; the Papp B→A at 90 min, 10 µM was 0.626 ± 0.238 ×10⁻⁶ cm/s; the efflux ratio at 90 min, 10 µM is 1.3 ± 0.38.
In turn, `CC(C)(C)c1nc(-c2cccc(NS(=O)(=O)c3c(F)cccc3F)c2F)c(-c2ccnc(CCC(=O)O)n2)s1` [6-97, 3-(4-(2-(tert-butyl)-4-(3-((2,6-difluorophenyl)sulfonamido)-2-fluorophenyl)thiazol-5-yl)pyrimidin-2-yl)propanoic acid] had an IC50 in the series on A375 cells (Homo sapiens, A-375, 72 h) above 1000 nM. For the same compound, at P-gp, the Papp A→B at 90 min, 10 µM came to 0.868 ± 0.021 ×10⁻⁶ cm/s; the Papp B→A at 90 min, 10 µM is 0.741 ± 0.156 ×10⁻⁶ cm/s; the efflux ratio at 90 min, 10 µM was 0.86 ± 0.19.
On to `CC(C)(C)c1nc(-c2cccc(NS(=O)(=O)c3c(F)cccc3F)c2F)c(-c2ccnc(NCCCCc3nnn[nH]3)n2)s1` [6-121, N-(3-(5-(2-((4-(1H-tetrazol-5-yl)butyl)amino)pyrimidin-4-yl)-2-(tert-butyl)thiazol-4-yl)-2-fluorophenyl)-2,6-difluorobenzenesulfonamide], for which the IC50 in the series with A375 cells (Homo sapiens, A-375, 72 h) amounted to 1270 ± 54.4 nM. The compound further had an Emax with A375 cells (Homo sapiens) of 60%. The compound also had a Papp B→A at 90 min, 10 µM at P-gp of 0.325 ± 0.124 ×10⁻⁶ cm/s.
For `CC(C)(C)c1nc(-c2cccc(NS(=O)(=O)c3cc(C(F)(F)F)ccc3C(F)(F)F)c2F)c(-c2ccnc(N)n2)s1` [6-163, N-(3-(5-(2-aminopyrimidin-4-yl)-2-(tert-butyl)thiazol-4-yl)-2-fluorophenyl)-2,5-bis(trifluoromethyl)benzenesulfonamide], in the series on A375 cells (Homo sapiens, A-375, 72 h), the IC50 was above 3000 nM.
The same measure, in the same setting: the same measure for `CC(C)(C)c1nc(-c2cccc(NS(=O)(=O)c3ccc(F)cc3C(F)(F)F)c2F)c(-c2ccnc(N)n2)s1` [6-166, N-(3-(5-(2-aminopyrimidin-4-yl)-2-(tert-butyl)thiazol-4-yl)-2-fluorophenyl)-4-fluoro-2-(trifluoromethyl)benzenesulfonamide]: above 3000 nM; for `CC(C)(C)c1nc(-c2c(F)ccc(NS(=O)(=O)c3ccc(F)cc3C(F)(F)F)c2F)c(-c2ccnc(N)n2)s1` [6-167, N-(3-(5-(2-aminopyrimidin-4-yl)-2-(tert-butyl)thiazol-4-yl)-2,4-difluorophenyl)-4-fluoro-2-(trifluoromethyl)benzenesulfonamide]: above 3000 nM; for `CC(C)(C)c1nc(-c2cccc(NS(=O)(=O)c3ccc(F)cc3C(F)(F)F)c2F)c(-c2ccnc(NCCCCC(=O)O)n2)s1` [6-181, 5-((4-(2-(tert-butyl)-4-(2-fluoro-3-((4-fluoro-2-(trifluoromethyl)phenyl)sulfonamido)phenyl)thiazol-yl)pyrimidin-2-yl)amino)pentanoic acid]: above 50000 nM.
As to `CC(C)(C)c1nc(-c2cccc(NS(=O)(=O)c3c(F)cccc3F)c2F)c(-c2ccnc(CCCCCC(=O)O)n2)s1` [6-193, 6-(4-(2-(tert-butyl)-4-(3-((2,6-difluorophenyl)sulfonamido)-2-fluorophenyl)thiazol-5-yl)pyrimidin-2-yl)hexanoic acid], the IC50 with A375 cells (Homo sapiens, A-375, 72 h) is 1750 ± 21.9 nM. In the series on A375 cells (Homo sapiens), this compound had an Emax of 60%.
`CC(C)NCC(O)COc1cccc2ccccc12` (stereo not shown) [Propranolol, reference compound]: the efflux ratio at 90 min, 10 µM on P-gp was 1.18.
The same measure, in the same setting: the figure for `C=C[C@H]1C[N@@]2CC[C@H]1C[C@@H]2[C@@H](O)c1ccnc2ccc(OC)cc12` [Quinidine, reference compound] is 8.09.
